Laboratory results as given in patent publication US12103946B2, “Steroid compounds as Treg modulators and uses thereof” (New York University, priority 2018, dated 2024).
“Also recorded” adds a separate entry of the source.

Tests used:
[1] = test system: naïve CD4+ T cells (Th17 differentiation, IL-17a); assay: In vitro Th17 differentiation, IL-17a staining by flow cytometry; format: cell-based, mouse
From the text: Our screen included both primary bile acids, synthesized by the host, and secondary bile acids, produced by bacterial modification of primary bile acids (FIG. 5). Naïve CD4^+ T cells were isolated from wild-type C57BL/6J (B6) mice and cultured with bile acids under Th17 differentiation conditions and, as a counter-screen, Treg differentiation conditions (FIG. 6).
In Vitro T Cell Culture. Naïve CD4^+ (CD62L^+ CD44^− CD25^− CD4^+) T cells were isolated from the spleens and the lymph nodes of mice of designated genotypes with FACS sorting. For certain experiments, naïve CD4^+ T cells were enriched using naïve CD4^+ T cell isolation kits (Miltenyi). Naïve CD4^+ T cells (40,000 cells) were cultured in a 96-well plate pre-coated with hamster IgG (MP Biomedicals) in T cell medium (RPMI, 10% fetal bovine serum, 25 mM glutamine, 55 μM 2-mercaptoethanol, 100 U/mL penicillin, […] streptomycin) supplemented with 0.25 μg/mL anti-CD3 (clone 145-2C11) and 1 μg/mL anti-CD28 (clone 37.51). For Th0 culture, T cells were cultured with the addition of 100 U/mL of IL-2 (PEPROTECH). For Th1 cell differentiation, T cells were cultured with the addition of 100 U/mL of IL-2, 10 μg/mL of anti-IL-4 (clone 11B11) and 10 ng/mL of IL-12 (PEPROTECH). For Th2 cell differentiation, T cells were cultured with the addition of 10 μg/mL of anti-IFNγ (clone XMG1.2) and 10 ng/mL of IL-4 (R&D Systems). For Th17 cell differentiation, T cells were cultured with the addition of 10 ng/mL of IL-6 (eBioscience) and 0.5 ng/mL of TGF-β (PEPROTECH). For Treg culture, T cells were cultured with the addition of 100 U/mL of IL-2 and various concentrations of TGF-β. […] Bile acids, retinoic acid (Sigma) or mitoQ (Focus Biomolecules), or mitoPQ (Sigma) were added either at 0 or 16 h time points. Compounds with low water solubility were sonicated before adding to the culture. Cells were harvested and assayed by flow cytometry on day 3. For ROS and mitochondrial membrane potential detection, cells cultured for 2 days were incubated with 5 μM of mitoSOX (ThermoFisher), 10 μM of DCFDA (Sigma) or 2 μM of JC-1 (ThermoFisher) for 30 min and assayed with flow cytometry.
Flow Cytometry. Cells harvested from in vitro culture or in vivo mice experiments were stimulated with 50 ng/mL PMA (Phorbol 12-myristate 13-acetate, Sigma) and 1 μM ionomycin (Sigma) in the presence of GolgiPlug (BD) for 4 h to determine cytokine expression. After stimulation, cells were stained with cell surface marker antibodies and LIVE/DEAD Fixable dye, Aqua, to exclude dead cells, fixed and permeabilized with a FoxP3/Transcription factor staining kit (eBioscience), followed by staining with cytokine- and/or transcription factor-specific antibodies. All flow cytometry analyses were performed on an LSR II flow cytometer (BD) and data were analyzed with FlowJo software (TreeStar).

[2] = target: T1, recombinant human RORγt ligand-binding domain (LBD) (Homo sapiens, UniProt P51449); assay: Microscale thermophoresis assay; settings: MST, read-out: equilibrium dissociation constant (Kd)
T1 sequence (P51449 269-508 limits assumed): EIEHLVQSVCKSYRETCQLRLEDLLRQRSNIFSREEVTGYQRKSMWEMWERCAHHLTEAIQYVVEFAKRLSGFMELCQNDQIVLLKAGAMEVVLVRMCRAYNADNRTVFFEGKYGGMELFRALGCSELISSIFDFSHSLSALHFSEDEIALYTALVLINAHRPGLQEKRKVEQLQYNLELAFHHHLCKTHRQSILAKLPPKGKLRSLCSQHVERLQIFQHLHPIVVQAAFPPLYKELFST
Experimental: We next examined if 3-oxoLCA physically interacts with the RORγt protein in vitro. A microscale thermophoresis (MST) assay was performed with recombinant human RORγt ligand-binding domain (LBD). […] Next, we examined if 3-oxoLCA modulates the transcriptional activity of RORγt. We assayed the effect of the bile acids on firefly luciferase expression directed by a fusion protein of RORγt and Gal4-DBD (DNA-binding domain) in human embryonic kidney (HEK) 293 cells^14.
Microscale Thermophoresis Assay. The binding affinity of the compounds with RORγ ligand-binding domain (LBD) was analyzed by microscale thermophoresis (MST). Purified RORγ-LBD was labeled with the Monolith NT™ Protein Labeling Kit RED (NanoTemper Technologies). Serially-diluted compounds, with concentrations of 1 mM to 20 nM, were mixed with 55 nM labeled RORγ-LBD at room temperature and loaded into Monolith™ standard-treated capillaries. Binding was measured by monitoring the thermophoresis with 20% LED power and ‘Medium’ MST power on a Monolith NT.115 instrument (Nano Temper Technologies) with the following time setting: 5s Fluo, Before; 20s MST On; and 5s Fluo, After. Kd values were fitted using the NT Analysis software (Nano Temper Technologies).

[3] = Bile acid quantification in mouse cecal contents by UPLC-MS; settings: mice fed 0.3% (w/w) 3-oxoLCA chow for one week
From the text: Data are shown as the mean±standard deviation by unpaired t-test with 2-tailed p-value.

C[C@H](CCC(=O)O)[C@H]1CC[C@H]2[C@@H]3CC[C@@H]4CC(=O)CC[C@]4(C)[C@H]3CC[C@]12C [3-oxoLCA, 3-oxolithocholic acid]
suppression of Th17 cells in VDR or FXR knockout cells ([1]; 20 μM): VDR and FXR also failed to contribute to the suppressive activities | Th17 cell differentiation (IL-17a) ([1]; bile acids 20 μM, 3 days, IL-6 and TGF-β): dose-dependent effects; also recorded: inhibited Th17 differentiation | Kd [2]: ~1000 nM | average concentration in cecal contents [3]: 24 picomol/mg of wet mass
